Measurements as given in patent publication US20100216767A1, “QUINAZOLINES FOR PDK1 INHIBITION” (priority 2006, published 2010).

molecular target: T1, PDK1 kinase (Homo sapiens, UniProt O15530); assay: PDK1 Kinase Alpha Screen Assay; type: biochemical; details: Table 1; 10 μM ATP, 50 nM PDK1-4 peptide
T1 sequence (O15530 1-556): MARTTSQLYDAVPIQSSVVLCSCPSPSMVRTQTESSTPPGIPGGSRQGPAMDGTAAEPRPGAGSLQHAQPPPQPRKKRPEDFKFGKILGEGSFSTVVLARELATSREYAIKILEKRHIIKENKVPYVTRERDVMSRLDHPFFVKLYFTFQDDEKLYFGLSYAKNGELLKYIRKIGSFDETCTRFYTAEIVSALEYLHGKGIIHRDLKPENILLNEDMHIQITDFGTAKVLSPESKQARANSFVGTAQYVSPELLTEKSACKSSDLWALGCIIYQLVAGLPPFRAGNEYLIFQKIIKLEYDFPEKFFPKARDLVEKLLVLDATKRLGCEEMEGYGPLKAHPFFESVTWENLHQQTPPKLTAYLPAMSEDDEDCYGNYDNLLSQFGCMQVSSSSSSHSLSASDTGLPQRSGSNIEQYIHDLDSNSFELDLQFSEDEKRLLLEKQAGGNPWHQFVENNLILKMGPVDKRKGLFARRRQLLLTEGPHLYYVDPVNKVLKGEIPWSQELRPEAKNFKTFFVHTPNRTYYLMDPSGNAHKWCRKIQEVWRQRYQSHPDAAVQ
Procedure: Reagents/Concentrations: The PDK1-4 peptide substrate, biotin-[…]-NH2, (SEQ ID NO: 1), was purchased from the Tufts University Core Facility. The final concentration of PDK1-4 peptide substrate was 50 nM. The ATP substrate (adenosine-[…] triphosphate) was purchased from Roche Diagnostics. The final concentration of ATP substrate was 10 μM. Phospho-(Ser/Thr) PKA substrate antibody was purchased from Cell Signaling Technology. The final concentration of antibody was 0.3 mg/mL. The Alpha Screen Protein A detection kit containing donor and acceptor beads was purchased from PerkinElmer Life Sciences. The final concentration of both donor and acceptor beads was 25 μg/mL. Alpha Screen was used for detection. The biotinylated-PDK1-4 peptide was phosphorylated by PDK1 kinase using the ATP substrate. The biotinylated-PDK1-4 peptide substrate was bound to the streptavidin coated donor bead. The antibody was bound to the protein A coated acceptor bead. The antibody bound to the phosphorylated form of the biotinylated PDK-1 peptide substrate, bringing the donor and acceptor beads into close proximity. Laser irradiation of the donor bead at 680 nm generated a flow of short-lived singlet oxygen molecules. When the donor and acceptor beads were in close proximity, the reactive oxygen generated by the irradiation of the donor beads initiated a luminescence/fluorescence cascade in the acceptor beads. This process led to a highly amplified signal with output in the 530-620 nm range. Assays were carried out in 50 mM Tris, pH=7.5, 10 mM MgCl2, 0.1% BSA, 0.01% Tween-20, 2 mM dithiolthreitol, 2.5% dimethyl sulfoxide. Reactions were stopped by adding 50 mM Tris, pH=7.5, 90 mM EDTA, 0.1% BSA, 0.01% Tween-20.
Procedure: To 10 μl, of PDK1-4 peptide, […] of test compound in dimethyl sulfoxide was added. PDK1 kinase and ATP were mixed, and 10 μL of the PDK1 kinase/ATP mix was added to start the reaction. The reaction was allowed to proceed for 3-18 hours. The reactions were then stopped by adding 10 μL of the EDTA-containing stop buffer. Beads were mixed with antibody, and 25 μL of the bead/antibody mix was then added to the stopped reactions. Plates were incubated at room temperature overnight to allow for detection development before being read. The assay was run in a 384-well format plate.

C#Cc1ccc2nc(Nc3cc(-c4ccncc4F)cc(N4CCOCC4)c3)ncc2c1 [Example 160, 6-ethynyl-N-(3-(3-fluoro-pyridin-4-yl)-5-morpholinophenyl)-quinazolin-2-amine] and C#Cc1ccc2nc(Nc3cc(CN4CCOCC4)cc(-c4nnn[nH]4)c3)ncc2c1 [Example 149, 6-ethynyl-N-(3-(morpholinomethyl)-5-(1H-tetrazol-5-yl)phenyl)-quinazolin-2-amine] cannot be ordered by IC50: under 5 µM for the first, under 5 µM for the second.

First: C#Cc1cc2cnc(Nc3cc(OC)cc(-n4nnnc4C)c3)nc2cc1OC [Example 172, 6-ethynyl-7-methoxy-N-(3-methoxy-5-(5-methyl-1H-tetrazol-1-yl)phenyl)-quinazolin-2-amine]
Second: C#Cc1ccc2nc(Nc3cc(OC)cc(-n4nnnc4C)c3)ncc2c1 [Example 156, 6-ethynyl-N-(3-methoxy-5-(5-methyl-1H-tetrazol-1-yl)phenyl)quinazolin-2-amine]
The IC50 of the first is higher: 5 to 10 µM for the first, under 5 µM for the second. The second is the more potent here.

First: COc1cc(C#Cc2cccnc2)cc2cnc(Nc3ccc(S(N)(=O)=O)cc3)nc12 [Example 53, 4-(8-methoxy-6-(pyridin-3-ylethynyl)quinazolin-2-ylamino)benzene-sulfonamide]
Second: COc1cc(Br)cc2cnc(Nc3ccc(S(N)(=O)=O)cc3)nc12 [Example 1, 4-(6-Bromo-8-methoxyquinazolin-2-ylamino)benzenesulfonamide]
The IC50 of the first is higher: 10 to 25 µM for the first, under 5 µM for the second. The second is the more potent here.

C#Cc1ccc2nc(Nc3ccc(N4CCOCC4)cc3)ncc2c1Cl [Example 99, 5-chloro-6-ethynyl-N-(4-morpholinophenyl)quinazolin-2-amine] and C#Cc1ccc2nc(Nc3ccc(N4CCOCC4)cc3)ncc2c1F [Example 24, 6-Ethynyl-5-fluoro-N-(4-morpholinophenyl)quinazolin-2-amine] cannot be ordered by IC50: under 5 µM for the first, under 5 µM for the second.

C#Cc1ccc2nc(Nc3cccc(C(N)=O)c3)ncc2c1 [Example 59, 3-(6-ethynylquinazolin-2-ylamino)benzamide] and C#Cc1ccc2nc(Nc3cc(CN)cc(NC(C)=O)c3)ncc2c1 [Example 137, N-(3-(aminomethyl)-5-(6-ethynylquinazolin-2-ylamino)phenyl)acetamide] cannot be ordered by IC50: under 5 µM for the first, under 5 µM for the second.

C#Cc1ccc2nc(Nc3cc(CN4CCOCC4)cc(NS(C)(=O)=O)c3)ncc2c1 [Example 143, N-(3-(6-ethynylquinazolin-2-ylamino)-5-(morpholino-methyl)phenyl)methane-sulfonamide] and C#Cc1ccc2nc(Nc3cc(CN4CCOCC4)cc(NC(C)=O)c3)ncc2c1 [Example 125, N-(3-(6-ethynylquinazolin-2-ylamino)-5-(morpholino-methyl)phenyl)acetamide] cannot be ordered by IC50: under 5 µM for the first, under 5 µM for the second.

CC(=O)Nc1cc(CN2CCOCC2)cc(Nc2ncc3cc(-c4cn[nH]c4)ccc3n2)c1 [Example 30, N-(3-(6-(1H-Pyrazol-4-yl)quinazolin-2-ylamino)-5-(morpholinomethyl)phenyl)acetamide] and CC(=O)Nc1cc(Nc2ncc3cc(Br)ccc3n2)cc(-c2cn[nH]c2)c1 [Example 153, N-(3-(6-bromoquinazolin-2-ylamino)-5-(1H-pyrazol-4-yl)phenyl)acetamide] cannot be ordered by IC50: under 5 µM for the first, under 5 µM for the second.

C#Cc1cc(OC)c2nc(Nc3ccc(C(=O)N4CCOCC4)cc3)ncc2c1Cl [Example 113, (4-(5-chloro-6-ethynyl-8-methoxyquinazolin-2-ylamino)phenyl)-(morpholino)methanone] and C#Cc1cc2cnc(Nc3ccc(N4CCOCC4)cc3)nc2cc1OC [Example 69, 6-ethynyl-7-methoxy-N-(4-morpholinophenyl)-quinazolin-2-amine] cannot be ordered by IC50: under 5 µM for the first, under 5 µM for the second.

Brc1ccc2nc(Nc3cc(CN4CCOCC4)cc(-c4nnn[nH]4)c3)ncc2c1 [Example 144, 6-bromo-N-(3-(morpholinomethyl)-5-(1H-tetrazol-5-yl)phenyl)-quinazolin-2-amine] and C#Cc1ccc2nc(Nc3cc(CN4CCOCC4)cc(NS(C)(=O)=O)c3)ncc2c1F [Example 162, N-(3-(6-ethynyl-5-fluoro-quinazolin-2-ylamino)-5-(morpholinomethyl)-phenyl)-methanesulfonamide] cannot be ordered by IC50: under 5 µM for the first, under 5 µM for the second.

C#Cc1ccc2nc(Nc3ccc(C(=O)NC4CC4)cc3)ncc2c1Cl [Example 107, 4-(5-chloro-6-ethynyl-quinazolin-2-ylamino)-N-cyclopropylbenzamide] and COc1ccc2nc(Nc3ccc(C(N)=O)cc3)ncc2c1 [Example 36, 4-(6-methoxyquinazolin-2-ylamino)benzamide] cannot be ordered by IC50: under 5 µM for the first, under 5 µM for the second.

COc1cc(-c2nccs2)c(Cl)c2cnc(Nc3ccc(C(=O)NC(C)C)cc3)nc12 [Example 119, 4-(5-chloro-8-methoxy-6-(thiazol-2-yl)quinazolin-2-ylamino)-N-isopropyl-benzamide] and COc1cc(-c2nccs2)c(Cl)c2cnc(Nc3ccc(N4CCOCC4)cc3)nc12 [Example 115, 5-chloro-8-methoxy-N-(4-morpholinophenyl)-6-(thiazol-2-yl)quinazolin-2-amine] cannot be ordered by IC50: under 5 µM for the first, under 5 µM for the second.

COc1cc(-c2nccs2)c(-c2nccs2)c2cnc(Nc3ccc(N4CCOCC4)cc3)nc12 [Example 169, 8-methoxy-N-(4-morpholinophenyl)-5,6-di(thiazol-2-yl)quinazolin-2-amine] and c1csc(-c2ccc3nc(Nc4ccc(N5CCOCC5)cc4)ncc3c2)n1 [Example 100, N-(4-morpholinophenyl)-6-(thiazol-2-yl)quinazolin-2-amine] cannot be ordered by IC50: under 5 µM for the first, under 5 µM for the second.

COc1cc2nc(Nc3ccc(S(N)(=O)=O)cc3)ncc2cc1Br [Example 47, 4-(6-Bromo-7-methoxyquinazolin-2-ylamino)benzenesulfonamide] and COc1cc(-c2nccs2)cc2cnc(Nc3ccc(S(N)(=O)=O)cc3)nc12 [Example 63, 4-(8-methoxy-6-(thiazol-2-yl)quinazolin-2-ylamino)-benzenesulfonamide] cannot be ordered by IC50: under 5 µM for the first, under 5 µM for the second.

C#Cc1cc2cnc(Nc3cccc(-c4nnn[nH]4)c3)nc2cc1OC [Example 98, N-(3-(1H-tetrazol-5-yl)phenyl)-6-ethynyl-7-methoxyquinazolin-2-amine] and C#Cc1cc2cnc(Nc3ccc(S(=O)(=O)N4CCOCC4)cc3)nc2cc1OC [Example 50, 6-ethynyl-7-methoxy-N-(4-(morpholinosulfonyl)-phenyl)-quinazolin-2-amine] cannot be ordered by IC50: under 5 µM for the first, under 5 µM for the second.

Compared with COc1ncccc1-c1ccc2nc(Nc3cc(CN(C)C)cc(NC(C)=O)c3)ncc2c1 [Example 93, N-(3-((dimethylamino)-methyl)-5-(6-(2-methoxy-pyridin-3-yl)quinazolin-2-ylamino)phenyl)acetamide], CC(=O)Nc1cc(CN(C)C)cc(Nc2ncc3c(Cl)c(-c4nccs4)ccc3n2)c1 [Example 91, N-(3-(5-chloro-6-(thiazol-2-yl)quinazolin-2-ylamino)-5-((dimethyl-amino)methyl)phenyl)-acetamide] is lower in IC50: 5 to 10 µM for the first, under 5 µM for the second.

COc1cc2nc(Nc3ccc(C(=O)N4CCOCC4)c(Cl)c3)ncc2cc1Br [Example 102, (4-(6-bromo-7-methoxy-quinazolin-2-ylamino)-2-chlorophenyl)(morpholino)-methanone] and COc1cc2nc(Nc3cc(CN4CCOCC4)cc(NC(C)=O)c3)ncc2cc1-c1nccs1 [Example 140, N-(3-(7-methoxy-6-(thiazol-2-yl)quinazolin-2-ylamino)-5-(morpholino-methyl)phenyl)-acetamide] cannot be ordered by IC50: under 5 µM for the first, under 5 µM for the second.

C#Cc1ccc2nc(Nc3cc(NC(C)=O)cc(-c4cccnc4)c3)ncc2c1 [Example 34, N-(3-(6-Ethynylyquinazolin-2-ylamino)-5-(pyridine-3-yl)phenyl)acetamide] and C#Cc1cc(OC)c2nc(Nc3cc(CN(C)C)cc(NC(C)=O)c3)ncc2c1Cl [Example 88, N-(3-(5-chloro-6-ethynyl-8-methoxyquinazolin-2-ylamino)-5-((dimethyl-amino)methyl)phenyl)-acetamide] cannot be ordered by IC50: under 5 µM for the first, under 5 µM for the second.
